Test results reported in patent US10040779B2, “Histone demethylase inhibitors” (priority 2012, dated 2018).

Tested on: KDM5A and KDM5B
Experiment: In vitro cell-based assay: tri-methyl H3K4 immuno-blotting in ZR-75-1 breast cancer cells
Settings: 72 hr, read-out: Cellular IC50
Experimental: This quantitative immuno-blotting assay measures the amount tri-methylated histone H3 at amino acid Lysine number 4, a specific substrate […] of the direct enzymatic activity of the histone demethylases KDM5A and KDM5B from extracts of the ZR-75-1 breast cancer cell line.
This assay is a fluorometric immunoassay for the quantification of tri-methyl H3K4 extracted from cells treated with test compound and is used as a measure of the cellular inhibition of KDM5A/B.
Extracts were prepared containing all of the cellular histone material using detergent based lysis and sonication methods. These lysates were subsequently normalized for total protein content using a colorimetric bicinchonic acid assay (MicroBCA Pierce/Thermo Scientific). Normalized cell extracts were then subjected to typical immuno-blotting procedures using NuPage reagents (Life Technologies). […] The amount of tri-methylated lysine 4 of histone H3 was detected using an antibody specific to the tri-methylated state (Cell Signaling Technologies) and quantified on an infrared imager using a densitometry software package (Odyssey CLx, Image Studio, Li-Cor). This background subtracted densitometry value was reported as a ration of the GAPDH amount for that sample and then calculated as a percent of the DMSO treated sample.

Q: How did the IC50 turn out when `O=C(O)c1ccncc1Nc1cn(C2CCOC2)c2ccc(F)cc12` (stereo not shown) [Example 68, 3-{[5-fluoro-1-(tetrahydrofuran-3-yl)-1H-indol-3-yl]amino}pyridine-4-carboxylic acid] was run?
A: 1 to 10 µM
